How the values were obtained:
Format in all cases: in vivo
[1] = tested on: cocklebur (Xanthium strumarium); test: Test C pre/postemergence; details: for Cocklebur plant response rating: scale 0 to 100 (0 no effect, 100 complete control)
Procedure, shortened: (§1)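 Greenhouse pot test: seeds treated preemergence, or plants at 2–18 cm (1- to 4-leaf stage) treated postemergence, with compound in non-phytotoxic solvent plus surfactant. Visual rating versus untreated controls after 12–14 days, scale 0 (no effect) to 100 (complete control); dash means not tested.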

[2] = tested on: common ragweed (Ambrosia elatior); test: Test C pre/postemergence; details: for Ragweed plant response rating: scale 0 to 100 (0 no effect, 100 complete control)
Procedure, shortened: as §1

[3] = tested on: corn (Zea mays); test: Test C pre/postemergence; details: for Corn plant response rating: scale 0 to 100 (0 no effect, 100 complete control)
Procedure, shortened: as §1

[4] = tested on: lambsquarters (Chenopodium album); test: Test C pre/postemergence; details: for Lambsquarters plant response rating: scale 0 to 100 (0 no effect, 100 complete control)
Procedure, shortened: as §1

[5] = tested on: chickweed (Stellaria media); test: Test C postemergence; details: for Chickweed plant response rating: scale 0 to 100 (0 no effect, 100 complete control); for Plant response rating, Chickweed: scale 0 to 100
Procedure, shortened: as §1

[6] = Postemergence, 250 g ai/ha, scale 0 to 100
[7] = Postemergence, 500 g ai/ha, scale 0 to 100
[8] = Preemergence, 62 g ai/ha, scale 0 to 100, 0 no effect, 100 complete control
[9] = Preemergence, 125 g ai/ha, scale 0 to 100
[10] = Preemergence, 250 g ai/ha, scale 0 to 100
[11] = Preemergence, 500 g ai/ha, scale 0 to 100
[12] = Preemergence, 16 g ai/ha, scale 0 to 100, 0 no effect, 100 complete control
[13] = Preemergence, 31 g ai/ha, scale 0 to 100, 0 no effect, 100 complete control

Compound: Nc1nc(C2CC2)nc(C=NO)c1Br [Compound 27]
- Cocklebur plant response rating ([1]; Postemergence, 62 g ai/ha): 20
- Cocklebur plant response rating ([1]; Postemergence, 125 g ai/ha): 25
- Plant response rating, Cocklebur [1, 6]: 25
- Plant response rating, Cocklebur [1, 7]: 25
- Plant response rating, Cocklebur [1, 8]: 0
- Plant response rating, Cocklebur [1, 9]: 50
- Plant response rating, Cocklebur [1, 10]: 70
- Plant response rating, Cocklebur [1, 11]: 95
- Ragweed plant response rating ([2]; Postemergence, 62 g ai/ha): 5
- Ragweed plant response rating ([2]; Postemergence, 125 g ai/ha): 20
- Plant response rating, Ragweed [2, 6]: 40
- Plant response rating, Ragweed [2, 7]: 50
- Plant response rating, Ragweed [2, 8]: 20
- Plant response rating, Ragweed [2, 9]: 65
- Plant response rating, Ragweed [2, 10]: 85
- Plant response rating, Ragweed [2, 11]: 95
- Corn plant response rating ([3]; Postemergence, 62 g ai/ha): 0
- Corn plant response rating ([3]; Postemergence, 125 g ai/ha): 0
- Plant response rating, Corn [3, 6]: 0
- Plant response rating, Corn [3, 7]: 0
- Plant response rating, Corn [3, 8]: 0
- Plant response rating, Corn [3, 9]: 10
- Plant response rating, Corn [3, 10]: 15
- Plant response rating, Corn [3, 11]: 25
- Lambsquarters plant response rating ([4]; Postemergence, 62 g ai/ha): 20
- Lambsquarters plant response rating ([4]; Postemergence, 125 g ai/ha): 20
- Plant response rating, Lambsquarters [4, 6]: 25
- Plant response rating, Lambsquarters [4, 7]: 50
- Plant response rating, Lambsquarters [4, 9]: 40
- Plant response rating, Lambsquarters [4, 10]: 90
- Plant response rating, Lambsquarters [4, 11]: 100
- Chickweed plant response rating ([5]; 62 g ai/ha): 0
- Chickweed plant response rating ([5]; 125 g ai/ha): 0
- Plant response rating, Chickweed ([5]; 250 g ai/ha): 0
- Plant response rating, Chickweed ([5]; 500 g ai/ha): 0

Compound: CCOC(=O)C(OC(C)=O)c1nc(C2CC2)nc(N)c1Br (stereo not drawn) [Compound 47]
- Plant response rating (scale of 0 to 100), Cocklebur ([1]; Postemergence, 16 g ai/ha): 35
- Plant response rating (scale of 0 to 100), Cocklebur ([1]; Postemergence, 31 g ai/ha): 45
- Cocklebur plant response rating ([1]; Postemergence, 62 g ai/ha): 60
- Cocklebur plant response rating ([1]; Postemergence, 125 g ai/ha): 65
- Plant response rating, Cocklebur [1, 12]: 0
- Plant response rating, Cocklebur [1, 13]: 0
- Plant response rating, Cocklebur [1, 8]: 70
- Plant response rating, Cocklebur [1, 9]: 75
- Plant response rating (scale of 0 to 100), Ragweed ([2]; Postemergence, 16 g ai/ha): 0
- Plant response rating (scale of 0 to 100), Ragweed ([2]; Postemergence, 31 g ai/ha): 0
- Ragweed plant response rating ([2]; Postemergence, 62 g ai/ha): 40
- Ragweed plant response rating ([2]; Postemergence, 125 g ai/ha): 80
- Plant response rating, Ragweed [2, 12]: 0
- Plant response rating, Ragweed [2, 8]: 45
- Plant response rating, Ragweed [2, 9]: 65
- Plant response rating (scale of 0 to 100), Corn ([3]; Postemergence, 16 g ai/ha): 0
- Plant response rating (scale of 0 to 100), Corn ([3]; Postemergence, 31 g ai/ha): 0
- Corn plant response rating ([3]; Postemergence, 62 g ai/ha): 0
- Corn plant response rating ([3]; Postemergence, 125 g ai/ha): 0
- Plant response rating, Corn [3, 12]: 0
- Plant response rating, Corn [3, 13]: 0
- Plant response rating, Corn [3, 8]: 0
- Plant response rating, Corn [3, 9]: 0
- Plant response rating (scale of 0 to 100), Lambsquarters ([4]; Postemergence, 16 g ai/ha): 0
- Plant response rating (scale of 0 to 100), Lambsquarters ([4]; Postemergence, 31 g ai/ha): 45
- Lambsquarters plant response rating ([4]; Postemergence, 62 g ai/ha): 70
- Lambsquarters plant response rating ([4]; Postemergence, 125 g ai/ha): 80
- Plant response rating, Lambsquarters [4, 12]: 0
- Plant response rating, Lambsquarters [4, 8]: 85
- Plant response rating, Lambsquarters [4, 9]: 95
- Plant response rating (scale of 0 to 100), Chickweed ([5]; 16 g ai/ha): 0
- Plant response rating (scale of 0 to 100), Chickweed ([5]; 31 g ai/ha): 0
- Chickweed plant response rating ([5]; 62 g ai/ha): 0
- Chickweed plant response rating ([5]; 125 g ai/ha): 0

From US8802597B2, “Herbicidal pyrimidines” (E I du Pont de Nemours and Company, priority 2003, dated 2014)
